According to patent US12171755B2, “PAPD5 inhibitors and methods of use thereof” (Children's Medical Center Corporation, priority 2017, dated 2024):

Experiments:
[1] = test system: TERC 3′ end processing in HEK 293 with stable shRNA-mediated knockdown of PARN; experiment: TERC 3′ end processing (3′ RACE) in PARN-deficient HEK 293 cells; assay type: cell-based; conditions: PARN-deficient human cells (HEK 293, PARN shRNA knockdown), treated for 7 days; 10 µM and 100 μM; listed as entry 1 in table 1
Experimental: The expected amplicons representing mature TERC versus extended forms are indicated (arrows). […] HEK 293 with stable shRNA-mediated knockdown of PARN were treated for 7 days with the Table 5, entry 1 compound.

PAPD5 = target: T1, PAPD5 (Homo sapiens, UniProt Q8NDF8); experiment: PAPD5 oligonucleotide extension assay (gel), compound dose response vs ATP; assay type: biochemical; conditions: recombinant PAPD5 in vitro
T1 construct: made in house
T1 sequence (Q8NDF8 68-698 isoform Q8NDF8-5): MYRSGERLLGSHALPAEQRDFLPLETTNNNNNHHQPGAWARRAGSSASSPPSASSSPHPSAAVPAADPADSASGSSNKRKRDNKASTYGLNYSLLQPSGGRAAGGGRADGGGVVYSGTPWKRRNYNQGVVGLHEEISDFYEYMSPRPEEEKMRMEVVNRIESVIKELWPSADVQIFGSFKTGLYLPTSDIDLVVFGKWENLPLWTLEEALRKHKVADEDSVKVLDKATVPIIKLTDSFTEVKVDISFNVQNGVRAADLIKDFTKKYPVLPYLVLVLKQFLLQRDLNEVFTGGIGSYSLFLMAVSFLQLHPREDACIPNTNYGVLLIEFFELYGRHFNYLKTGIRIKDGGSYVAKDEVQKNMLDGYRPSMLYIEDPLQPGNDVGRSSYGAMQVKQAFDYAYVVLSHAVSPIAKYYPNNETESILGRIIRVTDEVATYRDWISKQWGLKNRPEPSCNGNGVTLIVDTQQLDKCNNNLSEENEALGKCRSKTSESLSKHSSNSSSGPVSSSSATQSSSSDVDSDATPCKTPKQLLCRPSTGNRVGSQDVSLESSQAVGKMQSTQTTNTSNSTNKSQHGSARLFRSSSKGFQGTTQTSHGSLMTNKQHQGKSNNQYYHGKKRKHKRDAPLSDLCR
Experimental: Candidate inhibitors are assayed at a range of concentrations in functional assays entailing extension of fluorescently-labelled RNA oligonucleotide substrates in the presence of PAPD5, followed by gel electrophoresis. […] In FIG. 5, a 20-mer 5′-fluorescently labelled RNA oligonucleotide was incubated with recombinant WT or mutant PAPD5 for 1 hour in the presence of varying concentrations of ATP, and products were visualized by polyacrylamide gel electrophoresis. It is expected that wildtype (WT) PAPD5 with PAPD5 inhibitors can have similar results. In fact, 4 compounds were selected to test the validation assay. The results were shown in FIG. 8, and were consistent with the expected results.
Each compound tested in the assay was tested at 0 μM, 5 μM, 10 μM, 50 μM, and 100 μM. At each concentration, each compound was tested at 0 μM, 10 μM, 100 μM, and 1000 μM concentration of ATP.

PARN exonuclease = target: T2, PARN exonuclease (Homo sapiens, UniProt O95453); experiment: Counter-screen for inhibition of PARN exonuclease; assay type: biochemical
T2 sequence (O95453 1-639): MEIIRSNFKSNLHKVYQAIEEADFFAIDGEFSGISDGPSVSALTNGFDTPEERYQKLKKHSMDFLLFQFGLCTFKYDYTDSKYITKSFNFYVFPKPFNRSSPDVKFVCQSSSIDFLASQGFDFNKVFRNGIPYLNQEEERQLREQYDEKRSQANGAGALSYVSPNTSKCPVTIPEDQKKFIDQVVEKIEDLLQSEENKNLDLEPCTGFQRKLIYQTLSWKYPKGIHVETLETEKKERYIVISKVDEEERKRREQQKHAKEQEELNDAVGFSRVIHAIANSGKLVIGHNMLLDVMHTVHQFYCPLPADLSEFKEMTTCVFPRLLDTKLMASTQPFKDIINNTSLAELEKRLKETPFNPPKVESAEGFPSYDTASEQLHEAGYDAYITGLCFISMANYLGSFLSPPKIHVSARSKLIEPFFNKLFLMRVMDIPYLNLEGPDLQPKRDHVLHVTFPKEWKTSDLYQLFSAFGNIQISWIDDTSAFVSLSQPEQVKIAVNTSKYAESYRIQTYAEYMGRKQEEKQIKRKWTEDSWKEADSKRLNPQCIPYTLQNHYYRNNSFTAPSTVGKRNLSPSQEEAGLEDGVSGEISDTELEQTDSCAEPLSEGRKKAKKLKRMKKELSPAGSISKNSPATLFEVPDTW
Text: Although PARN and PAPD5 have opposing functions in TERC maturation and stabilization, PARN and PAPD5 are structurally related, and so molecules that inhibit one enzyme may inhibit the other.

inhibition of PAPD5 (in words) (PAPD5)	inhibition of PARN exonuclease (in words) (PARN exonuclease)	Structure (SMILES)	restoration of TERC 3′ end processing / maturation (in words) [1]
–	–	CCOC(=O)c1cnc2ccc(OC(F)(F)F)cc2c1Nc1ccccc1C(=O)O [Entry 1, 2-[[3-ethoxycarbonyl-6-(trifluoromethoxy)quinolin-4-yl]amino]benzoic acid]	restoration of TERC maturation that is similar to that achieved by PAPD5 knockdown
inhibit PAPD5	do not inhibit PARN	CCOC(=O)c1cnc2ccc(OC(F)(F)F)cc2c1Nc1ccccc1C(=O)O [entry 1 in Table 5, 2-[[3-ethoxycarbonyl-6-(trifluoromethoxy)quinolin-4-yl]amino]benzoic acid]	–
inhibit PAPD5	do not inhibit PARN	CCc1ccc2ncc(C(=O)c3ccc(C)c(C)c3)c(N3CCC(C(N)=O)CC3)c2c1 [entry 2 in Table 5, 1-[3-(3,4-dimethylbenzoyl)-6-ethylquinolin-4-yl]piperidine-4-carboxamide]	–
